Data on seven molecules can be found in ChEMBL document CHEMBL5465560, “Selectivity Literature for EUbOPEN Chemogenomic Library” (2024).

Experiment [1] concerns the target T1, Serine/threonine-protein kinase BRSK2 (Homo sapiens) (UniProt Q8IWQ3).
T1 sequence (whole entry): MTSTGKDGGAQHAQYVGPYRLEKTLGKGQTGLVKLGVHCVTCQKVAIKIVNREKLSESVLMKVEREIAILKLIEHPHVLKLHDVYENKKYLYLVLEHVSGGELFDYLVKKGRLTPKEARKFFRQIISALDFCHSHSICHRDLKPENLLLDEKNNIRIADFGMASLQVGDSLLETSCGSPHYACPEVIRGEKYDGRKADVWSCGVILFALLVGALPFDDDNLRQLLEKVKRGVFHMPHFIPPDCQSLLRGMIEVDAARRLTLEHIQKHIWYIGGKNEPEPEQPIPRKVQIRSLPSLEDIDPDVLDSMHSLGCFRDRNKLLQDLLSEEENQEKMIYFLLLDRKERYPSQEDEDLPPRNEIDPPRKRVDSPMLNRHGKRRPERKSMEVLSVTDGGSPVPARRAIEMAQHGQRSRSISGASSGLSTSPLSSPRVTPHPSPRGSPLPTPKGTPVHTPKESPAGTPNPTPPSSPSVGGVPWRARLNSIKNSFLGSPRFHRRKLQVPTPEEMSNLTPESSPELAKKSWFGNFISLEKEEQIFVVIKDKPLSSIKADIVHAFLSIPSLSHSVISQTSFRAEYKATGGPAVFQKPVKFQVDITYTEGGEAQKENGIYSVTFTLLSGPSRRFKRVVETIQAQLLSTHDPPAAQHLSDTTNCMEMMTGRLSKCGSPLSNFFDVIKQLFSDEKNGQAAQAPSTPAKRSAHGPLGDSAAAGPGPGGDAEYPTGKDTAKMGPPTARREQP
As to conditions: at 10 µM.

Experiment [2] has as its target T2, Serine/threonine-protein kinase 17B (Homo sapiens) (UniProt O94768).
T2 sequence (whole entry): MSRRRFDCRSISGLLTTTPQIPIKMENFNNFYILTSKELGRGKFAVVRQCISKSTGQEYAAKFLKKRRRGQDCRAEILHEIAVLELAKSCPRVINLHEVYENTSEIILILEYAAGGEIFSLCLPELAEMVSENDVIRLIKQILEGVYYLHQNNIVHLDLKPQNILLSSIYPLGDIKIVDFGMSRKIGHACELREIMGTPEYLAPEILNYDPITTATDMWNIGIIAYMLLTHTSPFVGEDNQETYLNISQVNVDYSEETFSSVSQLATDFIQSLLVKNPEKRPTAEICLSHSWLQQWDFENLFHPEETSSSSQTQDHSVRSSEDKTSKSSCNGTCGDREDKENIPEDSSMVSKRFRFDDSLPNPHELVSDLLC
Briefly: Selectivity interaction (Kinase panel (DSF assay)) EUB0001558a STK17B. Background: Differential scanning fluorimetry follows unfolding on heating by fluorescence.

The next experiment addresses SRSF protein kinase 1 (Homo sapiens, UniProt Q96SB4). Briefly: Selectivity interaction (KinomeScan (DiscoverX)) EUB0001049a SRPK1. To be noted: at 1 µM.
The target in experiment [3] is Myosin light chain kinase 2, skeletal/cardiac muscle (Homo sapiens) (UniProt Q9H1R3). Kind of experiment: Selectivity interaction (KinomeScan (DiscoverX)) EUB0000695a MYLK2. To be noted: at 100 nM.
The target in experiment [4] is Tyrosine-protein kinase HCK (Homo sapiens) (UniProt P08631). Kind of experiment: Selectivity interaction (Kinase panel (Z-LYTE Assay)) EUB0001632a HCK. To be noted: at 10 µM.
Experiment [5] concerns Phosphatidylinositol 4,5-bisphosphate 3-kinase catalytic subunit alpha isoform (Homo sapiens), P42336 [M1043I]. To be noted: at 10 µM.
Experiment [6] concerns the target T3, Phosphatidylinositol 4,5-bisphosphate 3-kinase catalytic subunit delta isoform (Homo sapiens) (UniProt O00329).
T3 sequence (whole entry): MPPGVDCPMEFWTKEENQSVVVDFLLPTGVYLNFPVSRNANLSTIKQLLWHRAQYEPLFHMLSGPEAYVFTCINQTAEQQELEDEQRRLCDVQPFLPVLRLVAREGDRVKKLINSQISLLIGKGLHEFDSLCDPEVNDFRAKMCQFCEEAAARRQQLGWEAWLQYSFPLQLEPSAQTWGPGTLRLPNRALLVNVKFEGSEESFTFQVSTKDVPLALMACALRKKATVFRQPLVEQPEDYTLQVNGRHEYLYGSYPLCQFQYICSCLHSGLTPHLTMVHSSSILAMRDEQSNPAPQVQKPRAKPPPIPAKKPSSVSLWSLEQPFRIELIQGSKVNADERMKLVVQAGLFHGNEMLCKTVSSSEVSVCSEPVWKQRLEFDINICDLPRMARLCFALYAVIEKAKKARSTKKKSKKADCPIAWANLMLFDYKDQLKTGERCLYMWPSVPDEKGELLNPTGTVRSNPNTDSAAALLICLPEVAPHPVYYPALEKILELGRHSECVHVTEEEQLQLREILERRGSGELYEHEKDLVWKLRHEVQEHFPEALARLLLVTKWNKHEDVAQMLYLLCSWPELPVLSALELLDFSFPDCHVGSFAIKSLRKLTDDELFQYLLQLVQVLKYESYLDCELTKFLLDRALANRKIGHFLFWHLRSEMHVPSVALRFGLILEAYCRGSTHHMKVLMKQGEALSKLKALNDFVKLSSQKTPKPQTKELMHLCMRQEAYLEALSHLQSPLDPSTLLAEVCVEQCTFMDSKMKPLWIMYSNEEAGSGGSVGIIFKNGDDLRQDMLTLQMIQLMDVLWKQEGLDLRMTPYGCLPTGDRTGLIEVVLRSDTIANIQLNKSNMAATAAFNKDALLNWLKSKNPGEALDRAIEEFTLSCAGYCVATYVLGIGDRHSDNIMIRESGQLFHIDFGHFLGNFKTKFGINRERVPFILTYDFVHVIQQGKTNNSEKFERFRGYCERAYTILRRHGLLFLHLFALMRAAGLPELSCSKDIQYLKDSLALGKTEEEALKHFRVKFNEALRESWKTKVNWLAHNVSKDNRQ
Briefly: Selectivity interaction (ActivX KiNativ screen (kinase selectivity in THP-1 cell lysates)) EUB0000639a PIK3CD. The experiment is classed as subcellular. As to conditions: lysate, at 0.2 µM.

Sequence of SRSF protein kinase 1 (Q96SB4 whole entry): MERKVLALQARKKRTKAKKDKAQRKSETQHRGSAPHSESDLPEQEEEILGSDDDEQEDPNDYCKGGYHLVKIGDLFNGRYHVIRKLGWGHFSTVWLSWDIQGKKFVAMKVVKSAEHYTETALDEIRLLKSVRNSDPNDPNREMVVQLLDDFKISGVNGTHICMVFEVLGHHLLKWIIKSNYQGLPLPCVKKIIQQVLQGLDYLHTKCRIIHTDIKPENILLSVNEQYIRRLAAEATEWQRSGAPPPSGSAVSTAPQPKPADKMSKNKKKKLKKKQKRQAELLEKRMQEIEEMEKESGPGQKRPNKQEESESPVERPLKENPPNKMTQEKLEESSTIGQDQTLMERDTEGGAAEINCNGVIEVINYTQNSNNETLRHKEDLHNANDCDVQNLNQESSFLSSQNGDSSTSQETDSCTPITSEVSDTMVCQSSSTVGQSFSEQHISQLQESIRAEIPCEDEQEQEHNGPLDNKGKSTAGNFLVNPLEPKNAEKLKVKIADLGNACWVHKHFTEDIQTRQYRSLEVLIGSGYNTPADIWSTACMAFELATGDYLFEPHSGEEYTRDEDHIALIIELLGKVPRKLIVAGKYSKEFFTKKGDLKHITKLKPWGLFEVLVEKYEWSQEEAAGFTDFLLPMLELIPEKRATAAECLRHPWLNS
Sequence of Myosin light chain kinase 2, skeletal/cardiac muscle (Homo sapiens) (Q9H1R3 whole entry): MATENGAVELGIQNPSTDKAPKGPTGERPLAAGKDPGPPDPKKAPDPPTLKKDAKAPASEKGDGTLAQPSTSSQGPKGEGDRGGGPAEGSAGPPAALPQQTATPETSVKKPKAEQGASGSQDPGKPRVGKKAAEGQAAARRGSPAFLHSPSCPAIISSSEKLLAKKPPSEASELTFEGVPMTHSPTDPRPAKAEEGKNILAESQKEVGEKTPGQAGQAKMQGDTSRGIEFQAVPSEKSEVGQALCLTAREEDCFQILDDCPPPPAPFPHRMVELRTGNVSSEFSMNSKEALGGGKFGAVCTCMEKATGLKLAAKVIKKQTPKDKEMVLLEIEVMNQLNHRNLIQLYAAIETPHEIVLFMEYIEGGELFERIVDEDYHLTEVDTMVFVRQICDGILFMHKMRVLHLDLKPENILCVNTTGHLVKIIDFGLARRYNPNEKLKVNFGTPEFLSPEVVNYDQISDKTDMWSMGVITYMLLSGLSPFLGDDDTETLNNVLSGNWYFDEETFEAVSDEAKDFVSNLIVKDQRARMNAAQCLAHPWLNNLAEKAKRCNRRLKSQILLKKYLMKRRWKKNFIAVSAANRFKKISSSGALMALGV
Sequence of Tyrosine-protein kinase HCK (Homo sapiens) (P08631 2-526 limits assumed): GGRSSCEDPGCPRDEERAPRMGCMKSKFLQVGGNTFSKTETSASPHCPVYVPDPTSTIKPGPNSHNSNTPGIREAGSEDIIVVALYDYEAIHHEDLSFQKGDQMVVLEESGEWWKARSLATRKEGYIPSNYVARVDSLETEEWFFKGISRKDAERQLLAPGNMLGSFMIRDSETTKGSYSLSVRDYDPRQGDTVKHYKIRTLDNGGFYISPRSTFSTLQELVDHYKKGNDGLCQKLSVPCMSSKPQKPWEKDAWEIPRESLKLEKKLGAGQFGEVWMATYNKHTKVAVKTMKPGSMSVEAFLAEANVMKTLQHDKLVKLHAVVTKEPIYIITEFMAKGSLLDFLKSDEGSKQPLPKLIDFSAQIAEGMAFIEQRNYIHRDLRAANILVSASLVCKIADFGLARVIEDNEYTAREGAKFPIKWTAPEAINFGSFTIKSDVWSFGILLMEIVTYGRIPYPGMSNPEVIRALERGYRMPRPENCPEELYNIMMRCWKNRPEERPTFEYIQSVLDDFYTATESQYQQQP
Sequence of Phosphatidylinositol 4,5-bisphosphate 3-kinase catalytic subunit alpha isoform (Homo sapiens), P42336 [M1043I] (P42336 whole entry M1043I, canonical isoform): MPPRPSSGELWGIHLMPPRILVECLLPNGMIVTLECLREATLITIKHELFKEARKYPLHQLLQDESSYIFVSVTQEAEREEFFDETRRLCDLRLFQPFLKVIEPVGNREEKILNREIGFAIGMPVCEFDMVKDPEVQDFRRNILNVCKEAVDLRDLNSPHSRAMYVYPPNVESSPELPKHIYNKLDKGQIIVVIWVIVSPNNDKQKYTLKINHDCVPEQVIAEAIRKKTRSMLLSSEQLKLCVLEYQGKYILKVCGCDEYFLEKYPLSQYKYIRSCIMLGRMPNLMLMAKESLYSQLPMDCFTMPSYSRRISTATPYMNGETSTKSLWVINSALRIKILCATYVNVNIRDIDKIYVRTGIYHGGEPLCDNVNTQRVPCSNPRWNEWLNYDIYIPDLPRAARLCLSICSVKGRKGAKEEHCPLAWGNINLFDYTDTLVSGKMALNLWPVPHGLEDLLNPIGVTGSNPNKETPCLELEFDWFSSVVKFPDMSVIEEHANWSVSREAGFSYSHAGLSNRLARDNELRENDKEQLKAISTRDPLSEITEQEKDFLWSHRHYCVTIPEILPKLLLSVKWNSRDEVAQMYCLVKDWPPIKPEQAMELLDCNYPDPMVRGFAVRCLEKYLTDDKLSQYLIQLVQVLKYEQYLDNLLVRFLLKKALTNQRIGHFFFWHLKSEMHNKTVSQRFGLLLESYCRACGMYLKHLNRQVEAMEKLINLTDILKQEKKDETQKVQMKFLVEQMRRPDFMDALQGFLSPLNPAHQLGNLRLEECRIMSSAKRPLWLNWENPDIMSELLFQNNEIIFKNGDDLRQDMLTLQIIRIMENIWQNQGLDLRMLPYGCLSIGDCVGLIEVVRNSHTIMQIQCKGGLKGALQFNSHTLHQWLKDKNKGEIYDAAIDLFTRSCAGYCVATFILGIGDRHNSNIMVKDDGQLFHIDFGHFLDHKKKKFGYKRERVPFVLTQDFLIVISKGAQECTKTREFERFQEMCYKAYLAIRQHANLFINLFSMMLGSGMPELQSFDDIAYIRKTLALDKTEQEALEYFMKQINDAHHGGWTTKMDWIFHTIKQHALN

On to `Cc1cc([C@@H](C)Nc2ccccc2C(=O)O)c2nc(N3CCOCC3)cc(=O)n2c1` [AZD-6482], for which the % of control in experiment [1] was 100%. For the molecule `CC(C)(O)[C@H](F)CN1Cc2cc(NC(=O)c3cnn4cccnc34)c(N3CCOCC3)cc2C1=O`, the dTM in experiment [2] is 1.7 K.

On SRSF protein kinase 1, `COc1cc(Nc2nc(C)cc(-c3cnn4nc(OC)ccc34)n2)cc(C(F)(F)F)c1` came in with a % of control of 96%.

As to `Cc1cc(F)c(C(=O)Nc2cccc(-c3nncn3C(C)C)n2)cc1-n1cnc(C2CC2)c1`, in experiment [3], the % of control worked out at 100%. `Cn1cc(-n2cnc3c(NCc4nc5cc(Cl)c(Cl)cc5[nH]4)nc(N4CCOCC4)nc32)cn1` displayed a % of control in experiment [4] of 5.35%. In experiment [5], `CNC(=O)Nc1ccc(-c2nc(N3CC4CCC(C3)O4)c3cnn(C4CCC5(CC4)OCCO5)c3n2)cc1` registered a % of control of 4.4%.

In turn, `CC[C@@H]1[C@H](F)C(=O)N[C@@H]1COc1nccc2cc(C(N)=O)c(OC)cc12` [ZIMLOVISERTIB] gave a % of inhibition in experiment [6] of 4.7%.
